Earlier results in patent publication EP3733197A1, “ANAEROBIC ANTIOXIDANT COMPOSITION” (Pitcher, Stephen N., priority 2019, dated 2020).

What was measured:
[1] = in vivo

pregnancy risk (in vivo): category B
half-life [1]: approximately 5.6 hours
renally excreted by the body [1]: 30%
Compound: CC(=O)N[C@@H](CS)C(=O)O [NAC, N-acetylcysteine]
associated adverse effects (orally administered or inhaled): drowsiness, stomatitis, clamminess, rhinorrhea, and hemoptysis
